Test results reported in patent US20120128711A1, “ANTI-INFLAMMATORY APPROACH TO PREVENTION AND SUPPRESSION OF POST-TRAUMATIC STRESS DISORDER, TRAUMATIC BRAIN INJURY, DEPRESSION AND ASSOCIATED DISEASE STATES” (TOTAL NUTRACEUTICAL SOLUTIONS, INC., priority 2009, published 2012).
Entries after “also recorded” stand apart in the source; their conditions may differ.

Tests used:
[1] = test system: Drosophila melanogaster under Paraquat-induced oxidative stress; test: Survival of Drosophila melanogaster under Paraquat-induced oxidative stress; assay type: in vivo; conditions: 10 mM Paraquat
Method: The effect of Agaricus Blazei without enrichment, with Vitamin D2 enrichment, pure Vitamin D2 and control (vehicle for the delivery) on the survival rate of Drosophila melanogaster under Paraquat-induced oxidative stress condition was tested. The study focused on the control of Paraquat induced oxidative stress/biologic death. Paraquat is a very potent oxidative stress inducing chemical and causes death in animals and plants by the toxicity of released free radicals. Paraquat (10 mM concentration) (Sigma Aldrich) was used to chemically induce oxidative stress. Paraquat is the trade name for N,N′-dimethyl-4,4′-bipyridinium dichloride, a widely used herbicide. Paraquat, a viologen, is quick-acting and non-selective, killing green plant tissue on contact. It is also toxic to humans when swallowed. This is the most standard chemical used in experimental induction of oxidative stress using the Drosophila model system. It catalyzes the formation of reactive oxygen species (ROS). Paraquat will undergo redox cycling in vivo, gets reduced by an electron donor such NADPH, before being oxidized by an electron receptor such as dioxygen to produce superoxide, a major ROS.
The following materials and methods were utilized. Vials containing 10 mM Paraquat (from Sigma Aldrich) in 5 ml of 1.2% Low melting point Agarose medium were prepared. A strip of half moist filter paper was inserted in the medium (with the wet end in). Yeast paste containing 1% concentration (w/w) of the various test materials (see above) mixed to homogeneity was prepared. Yeast paste without drug was used as control. Uniform aliquot (˜300 mg) of yeast paste with or without the test material) was applied to vials in such a way that yeast paste was on the glass surface and covered the dry end (top) of the filter paper strip. Freshly enclosed wild type isogenized Canton-S males and females were collected and starved on 1% agar medium for 5-6 hours. Four males and females were transferred to the vial containing 10 mM paraquat in LMP agarose medium and yeast paste with +/− test material (8 flies per vial). 6 vials were used per experiment. Vials with flies were placed horizontally in a tray. The experiment was conducted at 25 degrees C. temperature. Flies were transferred once in 2 days and the number of flies surviving at each transfer was recorded.

[2] = test system: Alzheimer's disease (AD) model in Drosophila; test: Survival of Alzheimer's disease (AD) model flies (UAS-hAPP;408-GAL4); assay type: in vivo; conditions: mushroom or turmeric powder 1% w/w, Vitamin D2/D3 0.75% w/w in yeast paste, 25 degrees C
Excerpt: Type of Model (with specific Drosophila model of neurodegeneration, with references). The targeted over/ectopic expression of APP in the brain using a UAS promoter driven APP transgene, induced by a specific GAL4 trans-driver in the brain of a Drosophila model system, was used for this Example. Below is a reference for such over-expression of APP in the Drosophila model system and the combination gives a fully penetrant AD with limited life-span.
β-Amyloid peptides and amyloid precursor protein (APP) play a deterministic role in Alzheimer's disease (AD). […]
We determined the extension of life span in the mutant strain for each test compound. […]
A series of experiments were run according to the methods earlier reported on Paraquat induced oxidative stress and Drosophila Alzheimer's disease flies. […] We determined the extension of life span in the mutant strain for each test compound as detailed below. […]
In the meantime, yeast paste containing required concentration of compound was prepared. […] Required quantity of both yeast and compound was weighed and finely ground in a pestle and mortar. The finely ground powder was transferred to a small beaker and appropriate quantity of water was added and mixed very well to make a homogeneous paste. […]

SMILES	effect on survival under Paraquat-induced oxidative stress (words) [1]	survivability under Paraquat-induced oxidative stress condition ([1]; 1% w/w test material in yeast paste, period of 10 days, 25 degrees C) [%+/−3%]	effect on survival under Paraquat-induced oxidative stress (words) ([1]; listed as Vitamin D2)	effect on survival of AD flies [2]
C=C1CC[C@H](O)C/C1=C/C=C1\CCC[C@]2(C)[C@@H]([C@H](C)CCCC(C)C)CC[C@@H]12 [Vitamin D3, cholecalciferol]	no beneficial effect; also recorded: no effect on survival	–	–	–
C=C1CC[C@H](O)C/C1=C/C=C1\CCC[C@]2(C)[C@@H]([C@H](C)/C=C/[C@H](C)C(C)C)CC[C@@H]12 [pure Vitamin D2, ergocalciferol]	no effect on survival	13	deleterious effect on the survival; also recorded: no beneficial effect	no such effect
